Experimental data: ChEMBL document CHEMBL1201862, “PubChem BioAssay data set” (2004)
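A five-concentration, 48-hour dose response in 96-well plates underlies each endpoint, interpolated linearly between surrounding concentrations. GI50 = concentration required for 50% inhibition of growth.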 The source made the active and inactive calls. Cut-off read from the data, not from the text of the source: active = GI50 up to about 1.1 µM and inactive = higher. Where a SMILES comes first, the peptide text is derived from it. [ ]: non-standard residue; d: D form. Phe(4-NO2) = N[CH](Cc1ccc([N+](=O)[O-])cc1)C(=O)O

Legend:
Assay in all cases: DTP human tumour cell line panel, 48 h
ACHN = test system: ACHN
HCT-116 = test system: HCT-116
HCT-15 = test system: HCT-15
HOP-92 = test system: HOP-92
HT-29 = test system: HT-29
MCF7 = test system: MCF7
MDA-MB-435 = test system: MDA-MB-435
NCI/ADR-RES = test system: NCI/ADR-RES
OVCAR-5 = test system: OVCAR-5
OVCAR-8 = test system: OVCAR-8
PC-3 = test system: PC-3
SK-MEL-5 = test system: SK-MEL-5
SK-OV-3 = test system: SK-OV-3
SNB-19 = test system: SNB-19
SR = test system: SR
T47D = test system: T47D
TK-10 = test system: TK-10
U-251 = test system: U-251
UACC-62 = test system: UACC-62
SK-MEL-2 = test system: SK-MEL-2

| Compound | GI50 (ACHN) | GI50 (HCT-116) | GI50 (HCT-15) [µM] | GI50 (HOP-92) | GI50 (HT-29) | GI50 (MCF7) | GI50 (MDA-MB-435) | GI50 (NCI/ADR-RES) | GI50 (OVCAR-5) | GI50 (OVCAR-8) | GI50 (PC-3) | GI50 (SK-MEL-5) | GI50 (SK-OV-3) | GI50 (SNB-19) | GI50 (SR) | GI50 (T47D) | GI50 (TK-10) | GI50 (U-251) | GI50 (UACC-62) | GI50 (SK-MEL-2) |
| --- | --- | --- | --- | --- | --- | --- | --- | --- | --- | --- | --- | --- | --- | --- | --- | --- | --- | --- | --- | --- |
| C1=C(c2ccccc2)C(N2CCOCC2)Oc2ccccc21 (stereo not given) | > 100 µM (inactive) | > 100 µM (inactive) | > 100 | > 100 µM (inactive) | > 100 µM (inactive) | > 100 µM (inactive) | > 100 µM (inactive) | 79.8 µM (inactive) | > 100 µM (inactive) | > 100 µM (inactive) | 77.4 µM (inactive) | > 100 µM (inactive) | > 100 µM (inactive) | > 100 µM (inactive) | > 100 µM (inactive) | > 100 µM (inactive) | > 100 µM (inactive) | > 100 µM (inactive) | 95.3 µM (inactive) | – |
| COC(=O)C1(N2CCOCC2)CCC([C@@H](c2ccccc2)C(C)[N+](=O)[O-])C1 (stereo not given in full) | > 100 µM (inactive) | – | 66.8 | – | > 100 µM (inactive) | 21.9 µM (inactive) | > 100 µM (inactive) | > 100 µM (inactive) | > 100 µM (inactive) | > 100 µM (inactive) | > 100 µM (inactive) | > 100 µM (inactive) | > 100 µM (inactive) | > 100 µM (inactive) | 20.8 µM (inactive) | 2.03 µM (inactive) | > 100 µM (inactive) | > 100 µM (inactive) | > 100 µM (inactive) | > 100 µM (inactive) |
| O=C(O)CCC1COc2ccccc2O1 (stereo not given) | > 10 µM (inactive) | > 10 µM (inactive) | > 10 | > 10 µM (inactive) | > 10 µM (inactive) | > 10 µM (inactive) | > 10 µM (inactive) | > 10 µM (inactive) | > 10 µM (inactive) | > 10 µM (inactive) | > 10 µM (inactive) | > 10 µM (inactive) | > 10 µM (inactive) | > 10 µM (inactive) | – | > 10 µM (inactive) | > 10 µM (inactive) | > 10 µM (inactive) | > 10 µM (inactive) | > 10 µM (inactive) |
| C[C@]12CC[C@@H]3c4cc(C=O)c(OCc5ccccc5)cc4CC[C@H]3[C@@H]1CCC2OCc1ccccc1 (stereo not given in full) | 95.9 µM (inactive) | > 100 µM (inactive) | > 100 | > 100 µM (inactive) | > 100 µM (inactive) | > 100 µM (inactive) | > 100 µM (inactive) | > 100 µM (inactive) | > 100 µM (inactive) | > 100 µM (inactive) | 56.6 µM (inactive) | > 100 µM (inactive) | > 100 µM (inactive) | – | 73.1 µM (inactive) | > 100 µM (inactive) | > 100 µM (inactive) | > 100 µM (inactive) | > 100 µM (inactive) | > 100 µM (inactive) |
| N#CCC1COc2ccccc2O1 (stereo not given) | > 10 µM (inactive) | > 10 µM (inactive) | > 10 | > 10 µM (inactive) | > 10 µM (inactive) | > 10 µM (inactive) | > 10 µM (inactive) | > 10 µM (inactive) | > 10 µM (inactive) | > 10 µM (inactive) | > 10 µM (inactive) | > 10 µM (inactive) | > 10 µM (inactive) | > 10 µM (inactive) | > 10 µM (inactive) | > 10 µM (inactive) | > 10 µM (inactive) | > 10 µM (inactive) | > 10 µM (inactive) | – |
| CC(NC(=O)C(Cc1ccc([N+](=O)[O-])cc1)NC(=O)C(N)CCCCN)C(=O)NC(Cc1ccc([N+](=O)[O-])cc1)C(N)=O (stereo not given) (H-K[Phe(4-NO2)]A[Phe(4-NO2)]-NH2; configuration not given here) | 32.8 µM (inactive) | > 45.2 µM (inactive) | 56.6 | 28.3 µM (inactive) | 20.4 µM (inactive) | > 40.7 µM (inactive) | > 52.6 µM (inactive) | 69 µM (inactive) | > 100 µM (inactive) | 23.9 µM (inactive) | 32.5 µM (inactive) | 35.8 µM (inactive) | > 100 µM (inactive) | > 85.3 µM (inactive) | – | > 49.1 µM (inactive) | > 59.4 µM (inactive) | > 42.2 µM (inactive) | > 100 µM (inactive) | 51.5 µM (inactive) |
| CCOC(=O)/C(=C/NC(=S)Nc1c(CC)cccc1C(C)(C)C)C(=O)c1ccccc1 | > 100 µM (inactive) | > 100 µM (inactive) | > 100 | – | > 100 µM (inactive) | 88.9 µM (inactive) | > 100 µM (inactive) | > 100 µM (inactive) | > 100 µM (inactive) | > 100 µM (inactive) | > 100 µM (inactive) | > 100 µM (inactive) | > 100 µM (inactive) | – | > 100 µM (inactive) | > 100 µM (inactive) | – | > 100 µM (inactive) | > 100 µM (inactive) | > 100 µM (inactive) |
